Patent US20200000816A1, “COMPOUND HAVING SOMATOSTATIN RECEPTOR AGONISTIC ACTIVITY AND PHARMACEUTICAL USE THEREOF” (ONO PHARMACEUTICAL CO., LTD., priority 2017, published 2020)

Legend:
[1] = target: T1, human SSTR2 (Homo sapiens, UniProt P30874); assay: Evaluation of SSTR2 agonistic activity using cells expressing human SSTR2 (suppression of forskolin-stimulated cAMP production, SSTR2-CHO-K1); assay type: cell-based; settings: suppression of cAMP production by forskolin stimulation, 1000 nmol/L octreotide = 100%
T1 construct: Myc; expressed in transfected cells
T1 sequence (P30874 whole entry): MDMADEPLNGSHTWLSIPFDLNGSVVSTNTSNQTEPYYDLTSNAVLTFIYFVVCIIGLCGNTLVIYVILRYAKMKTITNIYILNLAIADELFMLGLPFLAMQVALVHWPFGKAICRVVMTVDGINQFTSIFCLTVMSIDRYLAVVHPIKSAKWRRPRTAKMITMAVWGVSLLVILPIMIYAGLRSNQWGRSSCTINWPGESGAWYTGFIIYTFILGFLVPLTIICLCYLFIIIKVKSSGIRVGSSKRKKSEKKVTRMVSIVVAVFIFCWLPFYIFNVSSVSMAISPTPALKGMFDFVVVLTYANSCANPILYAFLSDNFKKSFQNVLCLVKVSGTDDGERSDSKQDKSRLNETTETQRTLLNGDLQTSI

[2] = target: T2, hERG K+ channel (Homo sapiens, UniProt Q12809); assay: Evaluation of hERG K+ channel inhibitory activity using cells expressing human ERG (automated patch-clamp, CHO-K1); assay type: cell-based; settings: CHO-K1 cells with human ERG gene, tested at 1, 3 and 10 μmol/L, 5-minute incubation
T2 construct: expressed in transfected cells; host or cells: CHO-K1
T2 sequence (Q12809 whole entry): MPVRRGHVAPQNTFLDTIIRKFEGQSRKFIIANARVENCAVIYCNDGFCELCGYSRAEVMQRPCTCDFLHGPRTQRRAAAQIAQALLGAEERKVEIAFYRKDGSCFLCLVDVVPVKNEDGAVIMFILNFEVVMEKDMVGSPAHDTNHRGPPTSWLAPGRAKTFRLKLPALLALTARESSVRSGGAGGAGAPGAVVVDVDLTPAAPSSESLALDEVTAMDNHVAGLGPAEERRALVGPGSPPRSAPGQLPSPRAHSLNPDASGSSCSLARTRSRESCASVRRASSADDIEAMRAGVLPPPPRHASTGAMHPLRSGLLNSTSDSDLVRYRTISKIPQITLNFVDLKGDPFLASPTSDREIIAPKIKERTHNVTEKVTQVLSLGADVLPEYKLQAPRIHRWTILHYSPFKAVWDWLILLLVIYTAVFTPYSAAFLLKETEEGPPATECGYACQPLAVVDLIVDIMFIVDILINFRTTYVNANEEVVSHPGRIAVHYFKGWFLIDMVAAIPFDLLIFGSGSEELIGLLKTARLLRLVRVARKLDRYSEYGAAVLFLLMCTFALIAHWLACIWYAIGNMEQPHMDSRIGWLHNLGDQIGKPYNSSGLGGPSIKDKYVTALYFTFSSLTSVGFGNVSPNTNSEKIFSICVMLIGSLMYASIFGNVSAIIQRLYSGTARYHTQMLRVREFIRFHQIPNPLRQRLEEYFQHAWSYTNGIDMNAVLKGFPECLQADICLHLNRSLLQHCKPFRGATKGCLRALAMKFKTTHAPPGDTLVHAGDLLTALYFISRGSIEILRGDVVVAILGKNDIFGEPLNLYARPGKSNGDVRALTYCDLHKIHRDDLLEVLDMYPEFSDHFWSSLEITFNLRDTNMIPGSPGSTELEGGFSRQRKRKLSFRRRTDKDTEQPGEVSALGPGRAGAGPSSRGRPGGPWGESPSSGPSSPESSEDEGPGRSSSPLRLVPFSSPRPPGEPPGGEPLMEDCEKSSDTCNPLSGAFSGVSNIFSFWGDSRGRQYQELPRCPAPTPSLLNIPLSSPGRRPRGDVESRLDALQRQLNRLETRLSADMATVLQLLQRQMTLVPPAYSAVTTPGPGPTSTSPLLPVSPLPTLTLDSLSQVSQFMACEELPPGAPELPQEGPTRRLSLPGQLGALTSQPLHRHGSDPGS
Description: Evaluation of hERG K^+ Channel Inhibitory Activity Using Cells Expressing Human ERG
CHO-K1 cells having the human ERG gene (ether-a-go-go related gene) introduced therein were subcultured in an F-12 medium [F-12 Nutrient Mixture (HAM)] containing 10% inactivated foetal bovine serum, 100 IU/mL penicillin-100 μg/mL streptomycin and 200 μg/mL geneticin.
Patch-clamp was performed in a full-automated manner using CHO-K1 cells having the human ERG gene introduced therein and having a perforated patch formed therein with amphotericin B. For the experiment, a 384-well PatchPlate™ was used and the cell suspension and compounds were added thereto. The IKr current was measured with command voltages of holding potential of −80 mV, depolarization potential of +40 mV (2 seconds) and repolarization potential of −50 mV (2 seconds). The stimulation frequency was twice (single pulse stimulations) before and after the treatment with a drug (the concentrations of a compound for evaluation were 1, 3 and 10 μmol/L, a 5-minute incubation), and the Ikr maximum current was measured. The inhibition (%) on the CHO-K1 cells having the human ERG gene introduced therein was determined by correcting the variation in the maximum tail current before and after addition of the test substance by the variation thereof in the group treated with a medium (inhibition (%)=(1-variation in current before and after addition of a test substance/variation in current before and after addition of a medium)×100). The 50% inhibitory concentration (IC50 value) was calculated from a line connecting two points on both sides of the inhibition of 50%.

[3] = tested on: Chinese hamster lung-derived CHL/IU cells; assay: Evaluation of phospholipidosis induction ability using cultured cell line (NBD-PE incorporation); assay type: cell-based; settings: 24 hours, positive = 25% or more of amiodarone maximum reaction at cell viability 50% or more; for phospholipidosis induction ability (judgement): 6.25-100 μmol/L
Description: Chinese hamster lung-derived CHL/IU cells were suspended in an MEM-E culture solution containing non-essential amino acids, sodium pyruvate and 10% foetal bovine serum and seeded in a 96-well plate. The cells cultured overnight in an incubator (5% carbon dioxide, 95% air, 37° C.) were further cultured for 24 hours after replacing the culture solution with a culture solution containing 6.25, 12.5, 25, 50 or 100 μmol/L of a test substance and NBD-PE (fluorescence label N-(7-nitrobenz-2-oxa-1,3-diazol-4-yl)-1,2-dihexadecanoyl-sn-glycero-3-phosphoethanolamine triethylammonium salt) obtained from Molecular Probes. The phospholipidosis induction ability was evaluated by measuring the concentration of NBD-PE incorporated into the cells. Specifically, the cells were washed twice with PBS and then measured for the fluorescence of NBD-PE (excitation wavelength: 485 nm, fluorescence wavelength: 535 nm) incorporated in the cells on a SpectraMax plate reader available from Molecular Devices, LLC. for evaluation. After measurement of the fluorescence of NBD-PE, the cell viability was evaluated with Premix WST-1 Cell Proliferation Assay System available from TaKaRa Bio Inc. The phospholipidosis induction ability was judged to be positive when, at a dose that provided a cell viability of 50% or more, the reaction (the concentration of NBD-PE incorporated after administration of a test substance) was 25% or more of the maximum reaction of a positive control amiodarone (the concentration of NBD-PE incorporated into the cells after administration of amiodarone was regarded as 100%).

[4] = tested on: GH secretion; assay: Evaluation of suppression of growth hormone (GH) secretion using rats (GHRH-induced); assay type: in vivo; settings: Rattus norvegicus, 5 min, oral, dosage of 1 mg/kg, GHRH given 8 hours after dosing, blood GH 5 minutes after GHRH
Description: A medium (distilled water (Otsuka distilled water, Otsuka Pharmaceutical Factory, Inc.)) or a test compound dissolved in the medium was orally administered to rats (7-week old male Crl:CD(SD) IGS rats (Charles River Laboratories Japan, Inc.)) and after 7 hours and 57 minutes, the animals were administered with 50 mg/kg of pentobarbital sodium (Somnopentyl, Kyoritsu Seiyaku Corporation) via the tail vein for anaesthesia. Three minutes after administration of pentobarbital sodium, the rats were administered with 0.01 mg/kg of growth hormone-releasing hormone (GHRH, Bachem) via the tail vein to induce GH secretion. In order to measure the blood GH concentration, 0.2 mL of blood was collected through the jugular vein at 5 minutes after administration of GHRH. The collected blood was centrifuged at 4° C., 13,000×g for 5 minutes to obtain plasma. The blood GH concentration was measured by using Rat/Mouse Growth Hormone ELISA (Millipore) following the instruction of the kit. The percentage (%) of suppression of GH secretion was determined by using the obtained blood GH concentration and the equation {[suppression (%) of GH secretion]=([blood GH concentration of the group administered with the medium]−[blood GH concentration of the group administered with a test compound])/[blood GH concentration of the group administered with the medium]×100}. In the equation, the group administered with the medium represents the group of animals administered with the medium and the group administered with a test compound represents the group of animals administered with a test compound dissolved in the medium.

[5] = target: somatostatin receptor subtype 2 (SSTR2) (Homo sapiens, UniProt P30874); settings: reported in background art; cited from earlier work
Chain of somatostatin receptor subtype 2 (SSTR2) (P30874 whole entry, species assumed): as the sequence (P30874 whole entry) above

[6] = target: somatostatin receptor subtype 3 (SSTR3) (Homo sapiens, UniProt P32745); settings: reported in background art; cited from earlier work
Chain of somatostatin receptor subtype 3 (SSTR3) (P32745 whole entry, species assumed): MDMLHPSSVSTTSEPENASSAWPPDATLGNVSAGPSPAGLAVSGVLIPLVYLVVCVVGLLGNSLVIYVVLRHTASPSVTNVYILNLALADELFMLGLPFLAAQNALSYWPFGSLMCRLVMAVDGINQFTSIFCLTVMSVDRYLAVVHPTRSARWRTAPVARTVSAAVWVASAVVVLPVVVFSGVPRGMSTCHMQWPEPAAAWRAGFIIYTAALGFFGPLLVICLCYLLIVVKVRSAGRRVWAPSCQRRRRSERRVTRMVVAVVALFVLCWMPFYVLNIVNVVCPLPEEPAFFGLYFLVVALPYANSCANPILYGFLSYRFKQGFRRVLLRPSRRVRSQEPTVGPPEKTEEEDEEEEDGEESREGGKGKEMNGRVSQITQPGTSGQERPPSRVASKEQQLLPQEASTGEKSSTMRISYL

[7] = target: somatostatin receptor subtype 1 (SSTR1) (Homo sapiens, UniProt P30872); settings: reported in background art; cited from earlier work
Chain of somatostatin receptor subtype 1 (SSTR1) (P30872 whole entry, species assumed): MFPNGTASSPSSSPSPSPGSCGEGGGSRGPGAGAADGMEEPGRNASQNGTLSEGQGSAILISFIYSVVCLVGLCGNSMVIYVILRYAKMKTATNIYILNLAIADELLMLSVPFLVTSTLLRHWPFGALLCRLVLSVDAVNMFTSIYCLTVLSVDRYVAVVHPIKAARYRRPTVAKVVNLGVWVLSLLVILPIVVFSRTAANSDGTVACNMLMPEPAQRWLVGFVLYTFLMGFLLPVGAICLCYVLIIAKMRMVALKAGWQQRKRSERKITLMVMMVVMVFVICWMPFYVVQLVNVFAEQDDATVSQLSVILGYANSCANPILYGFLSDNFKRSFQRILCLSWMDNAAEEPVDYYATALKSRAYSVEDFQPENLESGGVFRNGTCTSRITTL

[8] = target: somatostatin receptor subtype 4 (SSTR4) (Homo sapiens, UniProt P31391); settings: reported in background art; cited from earlier work
Chain of somatostatin receptor subtype 4 (SSTR4) (P31391 whole entry, species assumed): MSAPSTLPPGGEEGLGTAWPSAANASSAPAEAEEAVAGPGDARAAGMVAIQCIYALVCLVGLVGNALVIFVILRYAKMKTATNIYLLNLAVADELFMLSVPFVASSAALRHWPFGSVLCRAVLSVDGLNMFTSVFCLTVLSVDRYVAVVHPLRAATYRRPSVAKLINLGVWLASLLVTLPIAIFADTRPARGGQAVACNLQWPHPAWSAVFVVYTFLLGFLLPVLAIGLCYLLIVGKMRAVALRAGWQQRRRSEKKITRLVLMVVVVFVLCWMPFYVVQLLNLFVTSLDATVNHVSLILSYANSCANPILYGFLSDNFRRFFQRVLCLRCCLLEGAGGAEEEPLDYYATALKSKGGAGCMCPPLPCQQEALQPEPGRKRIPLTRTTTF

[9] = tested on: gastric acid secretion; assay: Evaluation of suppression of gastric acid secretion using rats (pyloric ligation); assay type: in vivo, rat; settings: continuous intravenous administration, 1 μg/kg/h

EC50 [1] | SMILES | IC50 [2] | concentration at which judged to be positive in phospholipidosis induction ability [3] | inhibition in vivo at 1 mg/kg [4] | phospholipidosis induction ability (judgement) [3] | binding affinity to SSTR2 [5] | binding affinity to SSTR3 [6] | binding to SSTR1 [7] | binding to SSTR4 [8] | percentage of suppression of gastric acid secretion [9]
0.005 nM | COC(=O)c1cc(F)cc2nc(-c3cncc(-c4cc(F)ccc4F)c3N3CC[C@@H](N)[C@@H](O)C3)[nH]c12 [Example 4(16), Methyl 2-{4-[(3S,4R)-4-amino-3-hydroxy-1-piperidinyl]-5-(2,5-difluorophenyl)-3-pyridinyl}-5-fluoro-1H-benzimidazole-7-carboxylate] | 3900 nM | 25 µM | 67% |  |  |  |  |  | 
0.031 nM | CCN[C@@H]1CCN(c2c(-c3nc4cc(F)c(F)cc4[nH]3)cncc2-c2cc(F)ccc2F)C[C@@H]1O [Example 5(4), (3S,4R)-1-[3-(5,6-difluoro-1H-benzimidazol-2-yl)-5-(2,5-difluorophenyl)-4-pyridinyl]-4-(ethylamino)-3-piperidinol] | 8400 nM |  | 90% | negative |  |  |  |  | 
0.067 nM | COc1cc2nc(-c3cncc(-c4cc(F)cc(F)c4)c3N3CC[C@@H](NCCC(F)(F)F)[C@@H](O)C3)[nH]c2cc1F [Example 5(6), (3S,4R)-1-[3-(3,5-difluorophenyl)-5-(6-fluoro-5-methoxy-1H-benzimidazol-2-yl)-4-pyridinyl]-4-[(3,3,3-trifluoropropyl)amino]-3-piperidinol] | ≥ 10000 nM |  | 83% | negative |  |  |  |  | 
0.14 nM | O[C@H]1CN(c2c(-c3cc(F)cc(F)c3)cncc2-c2nc3cc(F)c(F)cc3[nH]2)CC[C@H]1NC1COC1 [Example 5, (3S,4R)-1-[3-(5,6-difluoro-1H-benzimidazol-2-yl)-5-(3,5-difluorophenyl)-4-pyridinyl]-4-(3-oxetanylamino)-3-piperidinol] | 7600 nM |  | 92% | negative |  |  |  |  | 
 | CC(C)[C@@H]1NC(=O)[C@H](CCCCN)NC(=O)[C@@H](Cc2c[nH]c3ccccc23)NC(=O)[C@H](Cc2ccc(O)cc2)NC(=O)[C@@H](NC(=O)[C@H](N)Cc2ccc3ccccc3c2)CSSC[C@@H](C(=O)N[C@H](C(N)=O)[C@@H](C)O)NC1=O [lanreotide acetate] |  |  |  |  | high affinity | moderate affinity | do not bind | do not bind | 
 | C[C@@H](O)[C@@H]1NC(=O)[C@H](CCCCN)NC(=O)[C@@H](Cc2c[nH]c3ccccc23)NC(=O)[C@H](Cc2ccccc2)NC(=O)[C@@H](NC(=O)[C@H](N)Cc2ccccc2)CSSC[C@@H](C(=O)N[C@H](CO)[C@@H](C)O)NC1=O [octreotide] |  |  |  |  |  |  |  |  | 39%
